Legend:
Assay type in all cases: in vivo
[1] = tested on: Glycine max; assay: Pre-emergence test; settings: 3 weeks after treatment
Procedure: (§1) To evaluate their herbicidal activity, compounds according to the invention are tested using a representative range of plants:
(§2) The pre-emergence tests involve spraying a liquid formulation of the compound onto the soil in which the seeds of the plant species mentioned above has recently been sown.
(§3) The soil used in the tests is a prepared horticultural loam. The formulations used in the tests are prepared from solutions of the test compounds in acetone containing 0.4% by weight of an alkyl-phenol/ethylene oxide condensate available under the trade mark TRITON X-155. These acetone solutions are diluted with water and the resulting formulations applied at dosage levels corresponding to 0.013 kg, 0.025 kg, 0.100 kg or 0.400 kg of active material per hectare in a volume equivalent to 900 litres per hectare. In these tests untreated sown soil are used as controls. From 2 to 4 weeks after treatment, the tests are terminated and each pot is examined and rated according to the rating system set forth below: […]

[2] = tested on: Digitaria sanguinalis; assay: Pre-emergence test; settings: 3 weeks after treatment
Procedure: as §1, §2, §3

[3] = tested on: Galium aparine; assay: Pre-emergence test; settings: 3 weeks after treatment
Procedure: as §1, §2, §3

[4] = tested on: Stellaria media; assay: Pre-emergence test; settings: 3 weeks after treatment
Procedure: as §1, §2, §3

[5] = tested on: Lamium purpureum; assay: Pre-emergence test; settings: 3 weeks after treatment
Procedure: as §1, §2, §3

[6] = tested on: Orysa sativa; assay: Pre-emergence test; settings: 3 weeks after treatment
Procedure: as §1, §2, §3

[7] = tested on: Triticum aestivum; assay: Pre-emergence test; settings: 3 weeks after treatment
Procedure: as §1, §2, §3

[8] = tested on: Abutilon theophrasti; assay: Pre-emergence test; settings: 3 weeks after treatment
Procedure: as §1, §2, §3

[9] = tested on: Alopecurus myosuroides; assay: Pre-emergence test; settings: 3 weeks after treatment
Procedure: as §1, §2, §3

[10] = tested on: Cassia obtusifolia; assay: Pre-emergence test; settings: 3 weeks after treatment
Procedure: as §1, §2, §3

[11] = tested on: Zea mays; assay: Pre-emergence test; settings: 3 weeks after treatment
Procedure: as §1, §2, §3

[12] = tested on: Echinochloa crus-galli; assay: Pre-emergence test; settings: 3 weeks after treatment
Procedure: as §1, §2, §3

[13] = tested on: Setaria viridis; assay: Pre-emergence test; settings: 3 weeks after treatment
Procedure: as §1, §2, §3

[14] = tested on: Matricaria inodora; assay: Pre-emergence test; settings: 3 weeks after treatment
Procedure: as §1, §2, §3

[15] = tested on: Ipomoea hederacea; assay: Pre-emergence test; settings: 3 weeks after treatment
Procedure: as §1, §2, §3

[16] = tested on: Glycine max; assay: Post-emergence herbicidal activity test; settings: 2-4 weeks after treatment
Procedure: as §1
(§4) These acetone solutions are diluted with water and the resulting formulations applied at dosage levels equivalent of about 0.025 to 0. 4 kg per hectare of test compound per pot. After spraying the plants are placed on greenhouse benches and are cared for in the usual manner, commensurate with conventional greenhouse practices. From 2 to 4 weeks after treatment, the seedling plants are examined and rated according to the rating system provided above.

[17] = tested on: Digitaria sanguinalis; assay: Post-emergence herbicidal activity test; settings: 2-4 weeks after treatment
Procedure: as §1, §4

[18] = tested on: Galium aparine; assay: Post-emergence herbicidal activity test; settings: 2-4 weeks after treatment
Procedure: as §1, §4

[19] = tested on: Stellaria media; assay: Post-emergence herbicidal activity test; settings: 2-4 weeks after treatment
Procedure: as §1, §4

[20] = tested on: Orysa sativa; assay: Post-emergence herbicidal activity test; settings: 2-4 weeks after treatment
Procedure: as §1, §4

[21] = tested on: Triticum aestivum; assay: Post-emergence herbicidal activity test; settings: 2-4 weeks after treatment
Procedure: as §1, §4

[22] = tested on: Abutilon theophrasti; assay: Post-emergence herbicidal activity test; settings: 2-4 weeks after treatment
Procedure: as §1, §4

[23] = tested on: Alopecurus myosuroides; assay: Post-emergence herbicidal activity test; settings: 2-4 weeks after treatment
Procedure: as §1, §4

[24] = tested on: Cassia obtusifolia; assay: Post-emergence herbicidal activity test; settings: 2-4 weeks after treatment
Procedure: as §1, §4

[25] = tested on: Zea mays; assay: Post-emergence herbicidal activity test; settings: 2-4 weeks after treatment
Procedure: as §1, §4

[26] = tested on: Echinochloa crus-galli; assay: Post-emergence herbicidal activity test; settings: 2-4 weeks after treatment
Procedure: as §1, §4

[27] = tested on: Setaria viridis; assay: Post-emergence herbicidal activity test; settings: 2-4 weeks after treatment
Procedure: as §1, §4

[28] = tested on: Matricaria inodora; assay: Post-emergence herbicidal activity test; settings: 2-4 weeks after treatment
Procedure: as §1, §4

[29] = tested on: Ipomoea hederacea; assay: Post-emergence herbicidal activity test; settings: 2-4 weeks after treatment
Procedure: as §1, §4

In the case of `COc1cc(C#Cc2ccccc2)nc(Oc2cc(C(F)(F)F)nn2C)c1` [Example 27], the “Assessment (pre-emergence application) GLXMA” value ([1]; 0.025 kg/ha) is reported as 2 (2-Slight effect), the “Assessment (pre-emergence application) GLXMA” value ([1]; 0.100 kg/ha) is reported as 2 (2-Slight effect) and the “Assessment (pre-emergence application) GLXMA” value ([1]; 0.400 kg/ha) is reported as 3 (3-Moderate effect). For the same compound, the “Assessment (pre-emergence application) DIGSA” value ([2]; 0.025 kg/ha) was 6 (6-Herbicidal effect), the “Assessment (pre-emergence application) DIGSA” value ([2]; 0.100 kg/ha) was 6 (6-Herbicidal effect) and the “Assessment (pre-emergence application) DIGSA” value ([2]; 0.400 kg/ha) was 8 (8-Approaching complete kill). For the same compound, the “Assessment (pre-emergence application) GALAP” value ([3]; 0.025 kg/ha) was 1 (1-Trace effect), the “Assessment (pre-emergence application) GALAP” value ([3]; 0.100 kg/ha) was 2 (2-Slight effect) and the “Assessment (pre-emergence application) GALAP” value ([3]; 0.400 kg/ha) was 6 (6-Herbicidal effect). For the same compound, the “Assessment (pre-emergence application) STEME” value ([4]; 0.025 kg/ha) was 9 (9-Complete kill), the “Assessment (pre-emergence application) STEME” value ([4]; 0.100 kg/ha) was 9 (9-Complete kill) and the “Assessment (pre-emergence application) STEME” value ([4]; 0.400 kg/ha) was 9 (9-Complete kill). The “Assessment (pre-emergence application) LAMPU” value ([5]; 0.025 kg/ha) was 8 (8-Approaching complete kill), the “Assessment (pre-emergence application) LAMPU” value ([5]; 0.100 kg/ha) was 8 (8-Approaching complete kill) and the “Assessment (pre-emergence application) LAMPU” value ([5]; 0.400 kg/ha) was 9 (9-Complete kill). The “Assessment (pre-emergence application) ORYSA” value ([6]; 0.025 kg/ha) was 0 (0-No effect), the “Assessment (pre-emergence application) ORYSA” value ([6]; 0.100 kg/ha) was 1 (1-Trace effect) and the “Assessment (pre-emergence application) ORYSA” value ([6]; 0.400 kg/ha) was 1 (1-Trace effect). The “Assessment (pre-emergence application) TRZWA” value ([7]; 0.025 kg/ha) was 1 (1-Trace effect), the “Assessment (pre-emergence application) TRZWA” value ([7]; 0.100 kg/ha) was 2 (2-Slight effect) and the “Assessment (pre-emergence application) TRZWA” value ([7]; 0.400 kg/ha) was 3 (3-Moderate effect). For the same compound, the “Assessment (pre-emergence application) ABUTH” value ([8]; 0.025 kg/ha) was 5 (5-Definite injury), the “Assessment (pre-emergence application) ABUTH” value ([8]; 0.100 kg/ha) was 5 (5-Definite injury) and the “Assessment (pre-emergence application) ABUTH” value ([8]; 0.400 kg/ha) was 8 (8-Approaching complete kill). The “Assessment (pre-emergence application) ALOMY” value ([9]; 0.025 kg/ha) was 2 (2-Slight effect), the “Assessment (pre-emergence application) ALOMY” value ([9]; 0.100 kg/ha) was 3 (3-Moderate effect) and the “Assessment (pre-emergence application) ALOMY” value ([9]; 0.400 kg/ha) was 6 (6-Herbicidal effect). The “Assessment (pre-emergence application) CASOB” value ([10]; 0.025 kg/ha) was 7 (7-Good herbicidal effect), the “Assessment (pre-emergence application) CASOB” value ([10]; 0.400 kg/ha) was 8 (8-Approaching complete kill) and the “Assessment (pre-emergence application) ZEAMX” value ([11]; 0.025 kg/ha) was 1 (1-Trace effect). For the same compound, the “Assessment (pre-emergence application) ZEAMX” value ([11]; 0.100 kg/ha) was 2 (2-Slight effect), the “Assessment (pre-emergence application) ZEAMX” value ([11]; 0.400 kg/ha) was 3 (3-Moderate effect) and the “Assessment (pre-emergence application) ECHCG” value ([12]; 0.025 kg/ha) was 3 (3-Moderate effect). The “Assessment (pre-emergence application) ECHCG” value ([12]; 0.100 kg/ha) was 4 (4-Injury), the “Assessment (pre-emergence application) ECHCG” value ([12]; 0.400 kg/ha) was 7 (7-Good herbicidal effect) and the “Assessment (pre-emergence application) SETVI” value ([13]; 0.025 kg/ha) was 5 (5-Definite injury). The “Assessment (pre-emergence application) SETVI” value ([13]; 0.100 kg/ha) was 8 (8-Approaching complete kill), the “Assessment (pre-emergence application) SETVI” value ([13]; 0.400 kg/ha) was 9 (9-Complete kill) and the “Assessment (pre-emergence application) MATIN” value ([14]; 0.025 kg/ha) was 8 (8-Approaching complete kill). The “Assessment (pre-emergence application) MATIN” value ([14]; 0.100 kg/ha) was 8 (8-Approaching complete kill), the “Assessment (pre-emergence application) MATIN” value ([14]; 0.400 kg/ha) was 8 (8-Approaching complete kill) and the “Assessment (pre-emergence application) IPOHE” value ([15]; 0.025 kg/ha) was 3 (3-Moderate effect). The “Assessment (pre-emergence application) IPOHE” value ([15]; 0.100 kg/ha) was 4 (4-Injury), the “Assessment (pre-emergence application) IPOHE” value ([15]; 0.400 kg/ha) was 6 (6-Herbicidal effect) and the “Post-emergence application GLXMA” value ([16]; 0.100 kg/ha) was 4 (4-Injury). The “Post-emergence application GLXMA” value ([16]; 0.400 kg/ha) was 6 (6-Herbicidal effect), the “Post-emergence application DIGSA” value ([17]; 0.100 kg/ha) was 4 (4-Injury) and the “Post-emergence application DIGSA” value ([17]; 0.400 kg/ha) was 6 (6-Herbicidal effect). The “Post-emergence application GALAP” value ([18]; 0.100 kg/ha) was 6 (6-Herbicidal effect), the “Post-emergence application GALAP” value ([18]; 0.400 kg/ha) was 7 (7-Good herbicidal effect) and the “Post-emergence application STEME” value ([19]; 0.100 kg/ha) was 6 (6-Herbicidal effect). For the same compound, the “Post-emergence application STEME” value ([19]; 0.400 kg/ha) was 8 (8-Approaching complete kill), the “Post-emergence application ORYSA” value ([20]; 0.100 kg/ha) was 3 (3-Moderate effect) and the “Post-emergence application ORYSA” value ([20]; 0.400 kg/ha) was 3 (3-Moderate effect). For the same compound, the “Post-emergence application TRZWA” value ([21]; 0.100 kg/ha) was 2 (2-Slight effect), the “Post-emergence application TRZWA” value ([21]; 0.400 kg/ha) was 3 (3-Moderate effect) and the “Post-emergence application ABUTH” value ([22]; 0.100 kg/ha) was 5 (5-Definite injury). For the same compound, the “Post-emergence application ABUTH” value ([22]; 0.400 kg/ha) was 6 (6-Herbicidal effect), the “Post-emergence application ALOMY” value ([23]; 0.100 kg/ha) was 6 (6-Herbicidal effect) and the “Post-emergence application ALOMY” value ([23]; 0.400 kg/ha) was 8 (8-Approaching complete kill). The “Post-emergence application CASOB” value ([24]; 0.100 kg/ha) was 7 (7-Good herbicidal effect), the “Post-emergence application CASOB” value ([24]; 0.400 kg/ha) was 7 (7-Good herbicidal effect) and the “Post-emergence application ZEAMX” value ([25]; 0.100 kg/ha) was 3 (3-Moderate effect). The “Post-emergence application ZEAMX” value ([25]; 0.400 kg/ha) was 3 (3-Moderate effect), the “Post-emergence application ECHCG” value ([26]; 0.100 kg/ha) was 5 (5-Definite injury) and the “Post-emergence application ECHCG” value ([26]; 0.400 kg/ha) was 7 (7-Good herbicidal effect). The “Post-emergence application SETVI” value ([27]; 0.100 kg/ha) was 7 (7-Good herbicidal effect), the “Post-emergence application SETVI” value ([27]; 0.400 kg/ha) was 8 (8-Approaching complete kill) and the “Post-emergence application MATIN” value ([28]; 0.100 kg/ha) was 5 (5-Definite injury). The “Post-emergence application MATIN” value ([28]; 0.400 kg/ha) was 7 (7-Good herbicidal effect), the “Post-emergence application IPOHE” value ([29]; 0.100 kg/ha) was 6 (6-Herbicidal effect) and the “Post-emergence application IPOHE” value ([29]; 0.400 kg/ha) was 6 (6-Herbicidal effect).
